Experimental data as given in US20230123589A1, “MOLECULAR MOBILITY ENHANCER OR MOLECULAR DRYING ENHANCER” (TEKDRY INTERNATIONAL, INC., priority 2020, published 2023).

Test: Evaluation of vapor diffusion (chemical indicators in 2-meter long 4-mm inner diameter polytetrafluoroethylene tube)
Type: physicochemical
Settings: 50° C., less than 10 torr, 15-minute time period
[1] = introduced into chamber extension
[2] = introduced into process chamber

Text: A typical diffusion apparatus for conducting these evaluations includes a stainless-steel pressure chamber which is connected to a smaller stainless-steel extension chamber. Connection is made by means of a stainless-steel tube that contains a valve for isolating vapor flow between the vacuum chamber and the chamber extension. The chamber extension contains isolated compartments that admitted molecular mobility enhancer (MME) and/or liquid or solid agent components. The vacuum chamber and the chamber extension are independently heated. […] The isolated compartments within the chamber extension were independently heated. […] The chamber extension as a whole as well as the isolated compartments within the chamber extension are connected to MME and transport moiety sources via a valve and a conduit connected to a flow controller. The chamber extension is also outfitted with a door that can be used for placing solid agent sources within the extension. The entire system (vacuum chamber and chamber extension) is connected to a vacuum system e.g., (comprising a vacuum pump) capable of reducing the pressure and vaporizing the molecular mobility enhancer and liquid or solid transport moieties.
The tube and its contents were placed in the process chamber of the diffusion system. In this test the process chamber was heated to 50° C. […] The door to the diffusion system was closed and sealed. The diffusion system was evacuated to a pressure less than 10 torr. Multiple vaporization/diffusion cycles were performed over the course of a 15-minute time period. At the end of the process the diffusion system was brought to atmosphere and the tube and its contents were removed from the process chamber.
The tube and its contents were placed in the process chamber of the diffusion system. In this test the diffusion system was heated to 50° C. […] The door to the diffusion system was closed and sealed. The diffusion system including the chamber extension was evacuated to a pressure less than 10 torr. Multiple vaporization/diffusion cycles were performed over the course of a 15-minute time period.

SMILES	color change on chemical indicators: exposure of entire inner length of the tube to transport moiety vapor [1]	color change on chemical indicators: exposure of entire inner length of the tube to transport moiety vapor [2]
OO [aqueous hydrogen peroxide (30 wt %), hydrogen peroxide]	entire inner length of the tube had not been exposed	entire inner length of the tube had not been exposed
CC(C)O [isopropanol]	entire inner length of the tube had not been exposed	entire inner length of the tube had not been exposed
